{
  "source": "patent US5266594A",
  "about": "“Inhibitors of nitric oxide synthase and use thereof to prevent glutamate neurotoxicity” (priority 1992, dated 1993)",
  "key": {"NOS protein": {"tested_on": "NOS protein", "assay": "Western blot of NOS protein in brain extracts after i.p. administration", "format": "in vivo, rat", "conditions": "i.p. administration of 5 and 50 mg/kg", "procedure": "To determine whether NO2 Arg administration alters levels of NOS protein, Western blot analysis of brain extracts were performed following the i.p. administration of both 5 and 50 mg/kg of NO2 Arg. Soluble cerebellar homogenates (100 μg) were separated on a 7.5% SDS-polyacrylamide gel and transferred to nitrocellulose. Lanes were incubated overnight with affinity purified NOS antibody (1:2500) at room temperature, and bands were visualized with an alkaline phosphatase linked secondary antibody. […] Therefore, the loss of NOS activity following peripheral administration of NO2 Arg is not attributed to inhibition of the synthesis of enzyme protein."}, "NOS": {"target": "NOS", "conditions": "cited from earlier work"}, "brain NOS": {"tested_on": "brain NOS", "assay": "brain NOS activity in cerebellar homogenates after i.p. administration", "format": "in vivo, rat (Sprague-Dawley)", "procedure": "Adult male rats (Sprague-Dawley, 3 per group) were injected intraperitoneally (i.p.) twice daily with 5 mg/kg or 50 mg/kg of NO2 Arg, MeArg, arginine or vehicle twice a day for four consecutive days. The animals were sacrificed by decapitation 14 hours following the last injection.\nCerebellar homogenates were used to determine NOS activity."}, "cGMP formation": {"tested_on": "cGMP formation", "assay": "cGMP formation in cortical cell cultures (RIA)", "format": "cell-based, rat", "conditions": "300 μM NMDA (plus 10 μM glycine), 1 minute; 100 μM NO2 Arg, 1 mM L-Arg, 100 units of SOD, 500 μM Hb", "protocol": "Primary dissociated cell cultures were prepared from fetal rats (13-to 14-day gestation for cortex and caudate-putamen cultures and 19- to 20-day gestation for hippocampal cultures). […] Dissociated cells were plated at a density of 3-4×10^5 cells per well in polyornithine-coated 15-mm multiwell plates. After 4 days the cells were treated with 10 μg of 5-fluoro-2'-deoxyuridine to prevent proliferations of noneuronal cells. Cells were maintained in MEM/5% horse serum/2 mM glutamine in 8% CO2 /humidified atmosphere at 37° C. The medium was changed twice weekly. Mature neurons (3-4 weeks) were used.\nFor determination of cGMP the cells were washed three times with CSS. […] After ether extraction, cGMP levels were determined by RIA.\nData are means ±SEM (n=6-8).\nData are means ±SEM (n=8-12)."}, "cortical cell cultures": {"tested_on": "cortical cell cultures", "assay": "cells", "format": "cell-based, rat", "conditions": "for pEC50: cortical cultures", "procedure": "Primary dissociated cell cultures were prepared from fetal rats (13-to 14-day gestation for cortex and caudate-putamen cultures and 19- to 20-day gestation for hippocampal cultures). The tissue of interest was dissected, incubated for 15 minutes in 0.027% trypsin in Brooks-Logan solution (5% phosphate-buffered saline/0.04M sucrose/10 mM Hepes/0.03M glucose, pH 7.4), and then transferred to modified Eagle's medium (MEM) 10% horse serum/10% fetal bovine serum/2 mM glutamine for trituration. Dissociated cells were plated at a density of 3-4×10^5 cells per well in polyornithine-coated 15-mm multiwell plates. After 4 days the cells were treated with 10 μg of 5-fluoro-2'-deoxyuridine to prevent proliferations of noneuronal cells. Cells were maintained in MEM/5% horse serum/2 mM glutamine in 8% CO2 /humidified atmosphere at 37° C. The medium was changed twice weekly. Mature neurons (3-4 weeks) were used.\nCells were exposed to excitatory amino acids according to the method of Koh and Choi (J. Neurosci. (1988) 8:2153-2163). Before exposure, the cells were washed three times with Tris-buffered control salt solution (CSS), containing 120 mM NaCl/5.4 mM KCl/1.8 mM CaCl2 /25 mM Tris hydrochloride, pH 7.4 at room temperature/15 mM glucose. Brief exposures to glutamate, NMDA (plus 10 μM glycine), quisqualate, and sodium nitroprusside (SNP) were performed for 5 minutes in CSS. The exposure solution was then washed away and replaced by MEM with 21 mM glucose; then the cells were placed in an incubator for 20-24 hour. Long exposures to kainate were performed in MEM/21 mM glucose for 20-24 hour in the incubator. After exposure to the excitatory amino acids, the medium was replaced by CSS/0.4% trypan blue, which stains nonviable cells. Two to four photographs (10-20×) were made of each well, and viable versus nonviable cells were counted. The cytotoxicity data represent 6-24 separate wells assayed per data point, with ≈500-1500 cells counted per well. Neuronal cell injury was also assessed by measuring the release of lactate dehydrogenase by damaged or destroyed cells into the extracellular fluid following drug exposure.\nBefore initiating cytotoxicity experiments with NOS inhibitors, the potency of NMDA applied for 5 minutes in inducing cell death was evaluated by examining exclusion of 0.4% trypan blue by viable cells or measuring lactate dehydrogenase released by damaged or destroyed cells into the extracellular fluid.\nTo examine the role of NO in other forms of glutamate neurotoxicity, the effects of NO2 Arg cytotoxicity induced by quisqualate, kainate, and NMDA were compared. […] Data are means ±SEM (n=6-24). Cell death was determined by 0.4% trypan blue exclusion by viable cells."}},
  "note": "pEC50, pKi: −log10 of the molar value. “Also recorded” adds a separate entry of the source. Where two headings read alike, the source gives them in different places.",
  "data": [
    {"compound": "N=C(NCCC[C@H](N)C(=O)O)N[N+](=O)[O-]", "note": "[NO2 Arg, L-N^ω -nitroarginine]", "values": [
      {"measurement": "alterations in NOS protein", "setting": "NOS protein", "result": "No alterations in NOS protein were observed"},
      {"measurement": "pKi", "setting": "NOS; Dwyer et al. (1991), read-out: Ki, inhibition of NOS activity of purified enzyme preparations", "result": 6.70},
      {"measurement": "mode of inhibition of NOS", "setting": "NOS; Moore (1990)", "result": "competitive inhibitor of NOS"},
      {"measurement": "inhibition of brain NOS", "setting": "brain NOS; 5 mg/kg i.p. twice daily, four consecutive days, 14 hours after last injection", "result": "about 50%"},
      {"measurement": "inhibition of enzyme activity in the brain after peripheral administration", "setting": "brain NOS; 5 mg/kg, peripheral administration", "result": "markedly inhibits enzyme activity in the brain"},
      {"measurement": "inhibition of brain NOS enzyme activity", "setting": "brain NOS; 50 mg/kg i.p. twice daily, four consecutive days, 14 hours after last injection", "result": 95, "unit": "%"},
      {"measurement": "inhibition of NOS activity, repeated administration for 7 days versus 4 days", "setting": "brain NOS; 7 days", "result": "no greater inhibition of NOS activity than 4 days of treatment"},
      {"measurement": "nature of inhibition of NOS in vivo", "setting": "brain NOS; FIG. 3, before and after dialysis", "result": "irreversible inhibition"},
      {"measurement": "effect of dialysis on enzyme activity", "setting": "brain NOS; crude supernatant from treated animals dialyzed for 24 hours", "result": "only slightly increases enzyme activity"},
      {"measurement": "time for which brain NOS activity does not return to normal levels", "setting": "brain NOS; following 90% inhibition with 50 mg/kg", "result": "at least 5 days"},
      {"measurement": "reduction of enzyme activity", "setting": "brain NOS; single injection of 50 mg/kg", "result": 50, "unit": "%"},
      {"measurement": "effect on NMDA stimulation of cGMP formation", "setting": "cGMP formation", "result": "antagonized"},
      {"measurement": "prevention of neurotoxicity, in words", "setting": "cortical cell cultures", "result": "prevent neurotoxicity in proportion to their relative potencies as NOS inhibitors"},
      {"measurement": "Cell death, % ± SEM (kainate + NO2 Arg)", "setting": "cortical cell cultures; 100 μM kainate +500 μM NO2 Arg", "result": "87.0 ± 3.2", "unit": "%"},
      {"measurement": "Cell death, % ± SEM (NMDA + NO2 Arg)", "setting": "cortical cell cultures; 300 μM NMDA + 10 μM glycine +100 μM NO2 Arg", "result": "17.7 ± 3.0", "unit": "%"},
      {"measurement": "Cell death, % ± SEM (NMDA + NO2 Arg + L-Arg)", "setting": "cortical cell cultures; 300 μM NMDA + 10 μM glycine +100 μM NO2 Arg + 1mM L-Arg", "result": "63.4 ± 5.5", "unit": "%"},
      {"measurement": "effect on NMDA cytotoxicity (photomicrographs, FIG. 4)", "setting": "cortical cell cultures; 300 μM NMDA plus 10 μM glycine plus 100 NO2 Arg", "result": "inhibition of NMDA cytotoxicity"},
      {"measurement": "Cell death, % ± SEM (glutamate + NO2 Arg + L-Arg)", "setting": "cortical cell cultures; 500 μM glutamate +100 μM NO2 Arg + 1 Mm L-Arg", "result": "48.2 ± 3.2", "unit": "%"},
      {"measurement": "Cell death, % ± SEM (glutamate + NO2 Arg)", "setting": "cortical cell cultures; 500 μM glutamate +100 μN NO2 Arg", "result": "28.9 ± 6.0", "unit": "%"},
      {"measurement": "Cell death, % ± SEM (quisqualate + NO2 Arg)", "setting": "cortical cell cultures; 500 μM quisqualate +500 μM NO2 Arg", "result": "51.1 ± 2.4", "unit": "%"},
      {"measurement": "Cell death, % ± SEM (quisqualate + NO2 Arg + L-Arg)", "setting": "cortical cell cultures; 500 μM quisqualate +500 μM NO2 Arg + mM L-Arg", "result": "66.6 ± 5.3", "unit": "%"},
      {"measurement": "inhibition at 100 µM", "setting": "cortical cell cultures; Rattus norvegicus, 100 μM NO2 Arg applied simultaneously with NMDA, read-out: reduction of NMDA-induced cell death", "result": 70, "unit": "%"},
      {"measurement": "pEC50", "setting": "cortical cell cultures; Rattus norvegicus, NMDA and related excitatory amino acids, read-out: EC50 for preventing neurotoxicity elicited by N-methyl-D-aspartate", "result": 4.70},
      {"measurement": "pEC50", "setting": "cortical cell cultures; Rattus norvegicus, NMDA, read-out: concentration giving 50% prevention of NMDA-induced cell death", "result": "~4.70"},
      {"measurement": "protection against kainate-induced cell death", "setting": "cortical cell cultures; kainate", "result": "no protection against kainate-induced cell death"},
      {"measurement": "protection against quisqualate-induced cell death", "setting": "cortical cell cultures; quisqualate", "result": "A portion of cell death elicited by quisqualate is prevented; also recorded: higher concentrations of NO2 Arg are required than with NMDA toxicity"}
    ]}
  ]
}
